Reference: PubChem BioAssay AID1963825 (Molecular Pharmacology Branch, DTP, NCI, 2024)

Experiment: Anticancer human tumor 997537-175-T-J1-PDC patient-derived colon adenocarcinoma cell line growth inhibition [POLQ]
Conditions: 997537-175-T-J1-PDC complex spheroid viability, combination with POLQ inhibitors; for IC50: curve of first compound; for viability, T/C: stronger effect = lower value
Procedure, shortened: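 Patient-derived tumour cells were co-cultured with HUVEC and mesenchymal stem cells as multicellular spheroids at 37 °C. They were treated with POLQ inhibitors (novobiocin, ART-558, RP6685) alone or combined with other agents. Top concentrations were at or near clinical Cmax (otherwise 10 microM; SN-38 at 1 microM), decreasing in half-log steps.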

[1] = second compound 0.0316 µM, first compound 0.0316 µM
[2] = second compound 0.0316 µM, first compound 0.1 µM
[3] = second compound 0.0316 µM, first compound 0.316 µM
[4] = second compound 0.0316 µM, first compound 1 µM
[5] = second compound 0.0316 µM, first compound 3.16 µM
[6] = second compound 0.0316 µM, first compound 10 µM
[7] = second compound 0.1 µM, first compound 0.0316 µM
[8] = second compound 0.1 µM, first compound 0.1 µM
[9] = second compound 0.1 µM, first compound 0.316 µM
[10] = second compound 0.1 µM, first compound 1 µM
[11] = second compound 0.1 µM, first compound 3.16 µM
[12] = second compound 0.1 µM, first compound 10 µM
[13] = second compound 0.316 µM, first compound 0.0316 µM
[14] = second compound 0.316 µM, first compound 0.1 µM
[15] = second compound 0.316 µM, first compound 0.316 µM
[16] = second compound 0.316 µM, first compound 1 µM
[17] = second compound 0.316 µM, first compound 3.16 µM
[18] = second compound 0.316 µM, first compound 10 µM
[19] = second compound 1 µM, first compound 0.0316 µM
[20] = second compound 1 µM, first compound 0.1 µM
[21] = second compound 1 µM, first compound 0.316 µM
[22] = second compound 1 µM, first compound 1 µM
[23] = second compound 1 µM, first compound 3.16 µM
[24] = second compound 1 µM, first compound 10 µM
[25] = second compound 3.16 µM, first compound 0.0316 µM
[26] = second compound 3.16 µM, first compound 0.1 µM
[27] = second compound 3.16 µM, first compound 0.316 µM
[28] = second compound 3.16 µM, first compound 1 µM
[29] = second compound 3.16 µM, first compound 3.16 µM
[30] = second compound 3.16 µM, first compound 10 µM
[31] = second compound 10 µM, first compound 0.0316 µM
[32] = second compound 10 µM, first compound 0.1 µM
[33] = second compound 10 µM, first compound 0.316 µM
[34] = second compound 10 µM, first compound 1 µM
[35] = second compound 10 µM, first compound 3.16 µM
[36] = second compound 10 µM, first compound 10 µM
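Further: luminescence signal used as a surrogate for viable cells; spheroids exposed to drugs for seven days before readout.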

CC1COCCN1c1cc(C2(S(C)(=N)=O)CC2)nc(-c2ccnc3[nH]ccc23)n1 (stereo not drawn) + Nc1ccc(C#CCN(C(=O)Cc2ncc(C(F)(F)F)cc2C(F)(F)F)c2ccc(F)cc2)nn1
IC50 (second compound 0.0316 µM): > 10 µM | IC50 (second compound 0.1 µM): 7.51 µM | IC50 (second compound 0.316 µM): > 10 µM | IC50 (second compound 1 µM): > 10 µM | IC50 (second compound 3.16 µM): 6.51 µM | IC50 (second compound 10 µM): > 10 µM | viability, T/C [1]: 115% | viability, T/C [2]: 107% | viability, T/C [3]: 86.7% | viability, T/C [4]: 96.5% | viability, T/C [5]: 87.1% | viability, T/C [6]: 57.2% | viability, T/C [7]: 105% | viability, T/C [8]: 105% | viability, T/C [9]: 81.3% | viability, T/C [10]: 95.4% | viability, T/C [11]: 65.5% | viability, T/C [12]: 43.9% | viability, T/C [13]: 109% | viability, T/C [14]: 103% | viability, T/C [15]: 97.5% | viability, T/C [16]: 79.2% | viability, T/C [17]: 79.4% | viability, T/C [18]: 71.7% | viability, T/C [19]: 97.8% | viability, T/C [20]: 108% | viability, T/C [21]: 105% | viability, T/C [22]: 81% | viability, T/C [23]: 63.9% | viability, T/C [24]: 52% | viability, T/C [25]: 93.9% | viability, T/C [26]: 91.2% | viability, T/C [27]: 107% | viability, T/C [28]: 92.4% | viability, T/C [29]: 66.9% | viability, T/C [30]: 40% | viability, T/C [31]: 94.9% | viability, T/C [32]: 94.6% | viability, T/C [33]: 94.6% | viability, T/C [34]: 81.7% | viability, T/C [35]: 47% | viability, T/C [36]: 55.8%

CNCc1ccc(-c2[nH]c3cc(F)cc4c3c2CCNC4=O)cc1 + Nc1ccc(C#CCN(C(=O)Cc2ncc(C(F)(F)F)cc2C(F)(F)F)c2ccc(F)cc2)nn1
IC50 (second compound 0.0316 µM): > 10 µM | IC50 (second compound 0.1 µM): > 10 µM | IC50 (second compound 0.316 µM): > 10 µM | IC50 (second compound 1 µM): > 10 µM | IC50 (second compound 3.16 µM): > 10 µM | IC50 (second compound 10 µM): > 10 µM | viability, T/C [1]: 106% | viability, T/C [2]: 102% | viability, T/C [3]: 100% | viability, T/C [4]: 97.1% | viability, T/C [5]: 103% | viability, T/C [6]: 104% | viability, T/C [7]: 98.6% | viability, T/C [8]: 102% | viability, T/C [9]: 93.2% | viability, T/C [10]: 95.5% | viability, T/C [11]: 99.2% | viability, T/C [12]: 101% | viability, T/C [13]: 87.3% | viability, T/C [14]: 108% | viability, T/C [15]: 106% | viability, T/C [16]: 90.8% | viability, T/C [17]: 97.7% | viability, T/C [18]: 99.7% | viability, T/C [19]: 90% | viability, T/C [20]: 108% | viability, T/C [21]: 102% | viability, T/C [22]: 94.6% | viability, T/C [23]: 110% | viability, T/C [24]: 89.8% | viability, T/C [25]: 93.1% | viability, T/C [26]: 95.6% | viability, T/C [27]: 85.1% | viability, T/C [28]: 99.1% | viability, T/C [29]: 96.2% | viability, T/C [30]: 111% | viability, T/C [31]: 87.4% | viability, T/C [32]: 104% | viability, T/C [33]: 101% | viability, T/C [34]: 96.8% | viability, T/C [35]: 110% | viability, T/C [36]: 114%

COc1cc2cc(C(=O)CCC(=O)O)sc2cc1OC + COC1C(OC(N)=O)C(O)C(Oc2ccc3c(O)c(NC(=O)c4ccc(O)c(CC=C(C)C)c4)c(=O)oc3c2C)OC1(C)C
IC50 (second compound 0.0316 µM): > 10 µM | IC50 (second compound 0.1 µM): > 10 µM | IC50 (second compound 0.316 µM): > 10 µM | IC50 (second compound 1 µM): > 10 µM | IC50 (second compound 3.16 µM): > 10 µM | IC50 (second compound 10 µM): > 10 µM | viability, T/C [1]: 95.1% | viability, T/C [2]: 98.6% | viability, T/C [3]: 88.1% | viability, T/C [4]: 92.5% | viability, T/C [5]: 89.7% | viability, T/C [6]: 80.3% | viability, T/C [7]: 94.3% | viability, T/C [8]: 96.3% | viability, T/C [9]: 87.5% | viability, T/C [10]: 93.5% | viability, T/C [11]: 99.1% | viability, T/C [12]: 92.2% | viability, T/C [13]: 101% | viability, T/C [14]: 108% | viability, T/C [15]: 99.9% | viability, T/C [16]: 96.2% | viability, T/C [17]: 86.2% | viability, T/C [18]: 91.8% | viability, T/C [19]: 100% | viability, T/C [20]: 98.4% | viability, T/C [21]: 104% | viability, T/C [22]: 93.5% | viability, T/C [23]: 100% | viability, T/C [24]: 90.4% | viability, T/C [25]: 96.2% | viability, T/C [26]: 101% | viability, T/C [27]: 96.5% | viability, T/C [28]: 101% | viability, T/C [29]: 97.3% | viability, T/C [30]: 105% | viability, T/C [31]: 97.2% | viability, T/C [32]: 89.6% | viability, T/C [33]: 95.5% | viability, T/C [34]: 104% | viability, T/C [35]: 94.8% | viability, T/C [36]: 84.1%

COc1cccc(OCCCN)c1-c1cc(Nc2cnc(C#N)cn2)n[nH]1 + Nc1ccc(C#CCN(C(=O)Cc2ncc(C(F)(F)F)cc2C(F)(F)F)c2ccc(F)cc2)nn1
IC50 (second compound 0.0316 µM): 0.11 µM | IC50 (second compound 0.1 µM): 0.072 µM | IC50 (second compound 0.316 µM): 0.0544 µM | IC50 (second compound 1 µM): 0.0213 µM | IC50 (second compound 3.16 µM): 0.0488 µM | IC50 (second compound 10 µM): 0.0209 µM | viability, T/C (second compound 0.0316 µM, first compound 0.00316 µM): 100% | viability, T/C (second compound 0.0316 µM, first compound 0.01 µM): 90.2% | viability, T/C [1]: 70.5% | viability, T/C [2]: 42.3% | viability, T/C [3]: 44% | viability, T/C [4]: 17.7% | viability, T/C (second compound 0.1 µM, first compound 0.00316 µM): 89.1% | viability, T/C (second compound 0.1 µM, first compound 0.01 µM): 96.8% | viability, T/C [7]: 70.5% | viability, T/C [8]: 43% | viability, T/C [9]: 22.2% | viability, T/C [10]: 23.2% | viability, T/C (second compound 0.316 µM, first compound 0.00316 µM): 103% | viability, T/C (second compound 0.316 µM, first compound 0.01 µM): 89.5% | viability, T/C [13]: 61.4% | viability, T/C [14]: 40.5% | viability, T/C [15]: 18% | viability, T/C [16]: 41.9% | viability, T/C (second compound 1 µM, first compound 0.00316 µM): 89.8% | viability, T/C (second compound 1 µM, first compound 0.01 µM): 61.1% | viability, T/C [19]: 50.3% | viability, T/C [20]: 21.8% | viability, T/C [21]: 40.6% | viability, T/C [22]: 36.2% | viability, T/C (second compound 3.16 µM, first compound 0.00316 µM): 88.4% | viability, T/C (second compound 3.16 µM, first compound 0.01 µM): 90.8% | viability, T/C [25]: 65.8% | viability, T/C [26]: 24.2% | viability, T/C [27]: 20.8% | viability, T/C [28]: 21.1% | viability, T/C (second compound 10 µM, first compound 0.00316 µM): 84% | viability, T/C (second compound 10 µM, first compound 0.01 µM): 85.1% | viability, T/C [31]: 30.4% | viability, T/C [32]: 24.9% | viability, T/C [33]: 34.1% | viability, T/C [34]: 20.5%
